# Source: patent US11352344B2, “Antagonists of the muscarinic acetylcholine receptor M4” (Vanderbilt University, priority 2017, dated 2022)
# Target: T1, Human M4 (Homo sapiens, UniProt P08173)
# T1 construct: expressed in transfected cells; host or cells: CHO-K1 (Chinese hamster ovary) cells, stably co-transfected with Gqi5
# T1 sequence (P08173 1-479): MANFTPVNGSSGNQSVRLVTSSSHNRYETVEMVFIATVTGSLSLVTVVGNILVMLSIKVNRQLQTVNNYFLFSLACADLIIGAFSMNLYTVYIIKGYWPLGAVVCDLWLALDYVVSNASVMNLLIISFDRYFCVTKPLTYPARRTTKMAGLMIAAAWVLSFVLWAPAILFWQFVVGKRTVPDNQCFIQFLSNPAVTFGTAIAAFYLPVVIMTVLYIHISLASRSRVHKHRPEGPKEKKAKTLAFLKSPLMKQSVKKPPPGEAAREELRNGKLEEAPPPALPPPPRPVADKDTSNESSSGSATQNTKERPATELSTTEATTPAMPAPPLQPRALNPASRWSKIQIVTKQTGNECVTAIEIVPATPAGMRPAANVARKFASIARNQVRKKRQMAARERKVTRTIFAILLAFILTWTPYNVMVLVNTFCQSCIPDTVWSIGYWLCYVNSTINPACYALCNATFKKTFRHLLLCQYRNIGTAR
# Assay: mAChR M4 cell-based functional assay (calcium flux, antagonism of EC80 acetylcholine response)
# Conditions: for remaining activity at 30 µM: % ACh maximum at 30 μM, human M4, read-out: Emin; for IC50: M4/Gqi5/CHO-K1 cells, decrease of response to EC80 acetylcholine
# Description: Human or rat M4 cDNA, along with the chimeric G protein Gqi5, were transfected into Chinese hamster ovary (CHO-K1) cells purchased from the American Type Culture Collection using Lipofectamine2000. M4/Gqi5/CHO cells were grown in Ham's F-12 medium containing 10% heat-inactivated fetal bovine serum (FBS), 20 mM HEPES, 500 μg/mL G418 sulfate, and 200 μg/mL Hygromycin B.
# For high throughput measurement of agonist-evoked increases in intracellular calcium, CHO-K1 cells stably expressing muscarinic receptors were plated in growth medium lacking G418 and hygromycin at 15,000 cells/20 μL/well in Greiner 384-well black-walled, tissue culture (TC)-treated, clear-bottom plates (VWR). Cells were incubated overnight at 37° C. and 5% CO2. The next day, cells were washed using an ELX 405 (BioTek) with assay buffer; the final volume was then aspirated to 20 μL. Next, 20 μL of a 2.3 μM stock of Fluo-4/acetoxymethyl ester (Invitrogen, Carlsbad, Calif.), prepared as a 2.3 mM stock in DMSO and mixed in a 1:1 ratio with 10% (w/v) Pluronic F-127 and diluted in assay buffer, was added to the wells and the cell plates were incubated for 50 min at 37° C. and 5% CO2. Dye was removed by washing with the ELX 405 and the final volume was aspirated to 20 μL. Compound master plates were formatted in a 10 point concentration-response curve (CRC) format (1:3 dilutions) in 100% DMSO with a starting concentration of 10 or 1 mM using a BRAVO liquid handler (Agilent). Test compound CRCs were then transferred to daughter plates (240 nL) using the Echo acoustic plate reformatter (Labcyte, Sunnyvale, Calif.) and then diluted into assay buffer (40 μL) to a 2× stock using a Thermo Fisher Combi (Thermo Fisher Scientific, Waltham, Mass.).
# Calcium flux was measured using the Functional Drug Screening System (FDSS) 6000 or 7000 (Hamamatsu Corporation, Tokyo, Japan) as an increase in the fluorescent static ratio. Compounds were applied to cells (20 μL, 2×) using the automated system of the FDSS at 2 seconds into the protocol and the data were collected at 1 Hz. At 143 s, 10 μL of an EC20 concentration of the muscarinic receptor agonist acetylcholine was added (5×), followed by the addition of 12 μL of an EC80 concentration of acetylcholine at the 268 s time point (5×). Agonist activity was analyzed as a concentration-dependent increase in calcium mobilization upon compound addition. Positive allosteric modulator activity was analyzed as a concentration-dependent increase in the EC20 acetylcholine response. Antagonist activity was analyzed as a concentration-dependent decrease in the EC80 acetylcholine response; for the purposes of the tables herein, an IC50 (inhibitory concentration 50) was calculated as a concentration-dependent decrease of the response elicited by an EC80 concentration of acetylcholine. Concentration-response curves were generated using a four-parameter logistical equation in XLFit curve fitting software (IDBS, Bridgewater, N.J.) for Excel (Microsoft, Redmond, Wash.) or Prism (GraphPad Software, Inc., San Diego, Calif.) or the Dotmatics software platform (Dotmatics, Bishop's Stortford, UK).
# Compounds were synthesized as described above. Activity (IC50 and Emin) was determined in the mAChR M4 cell-based functional assay as described above and the data are shown in Table 5. The compound numbers correspond to the compound numbers used in Examples 1-4 and Tables 1-4.
Compound,remaining activity at 30 µM [%],IC50 [nM]
"Cc1cnn(C)c1-c1ccc(NC2CCC3CN(CCC(C)(C)C)CC32)nn1 (stereo not shown) [Compound 1, 2-(3,3-Dimethylbutyl)-N-[6-(2,4-dimethylpyrazol-3-yl)pyridazin-3-yl]-3,3a,4,5,6,6a-hexahydro-1H-cyclopenta[c]pyrrol-4-amine]",31.1,> 10000
"Cc1cnn(C)c1-c1ccc(NC2CCC3CN(CC45CC6CC(CC(C6)C4)C5)CC32)nn1 (stereo not shown) [Compound 2, 2-(1-adamantylmethyl)-N-[6-(2,4-dimethylpyrazol-3-yl)pyridazin-3-yl]-3,3a,4,5,6,6a-hexahydro-1H-cyclopenta[c]pyrrol-4-amine]",8.16,2170
"Cc1cnn(C)c1-c1ccc(NC2CCC3CN(CC4CC5C=CC4C5)CC32)nn1 (stereo not shown) [Compound 3, 2-(5-bicyclo[2.2.1]hept-2-enylmethyl)-N-[6-(2,4-dimethylpyrazol-3-yl)pyridazin-3-yl]-3,3a,4,5,6,6a-hexahydro-1H-cyclopenta[c]pyrrol-4-amine]",14,3280
"Cc1cccnc1CN1CC2CCC(Oc3ccc(-c4c(C)cnn4C)nn3)C2C1 (stereo not shown) [Compound 4, 4-[6-(2,4-Dimethylpyrazol-3-yl)pyridazin-3-yl]oxy-2-[(3-methyl-2-pyridyl)methyl]-3,3a,4,5,6,6a-hexahydro-1H-cyclopenta[c]pyrrole]",31.9,> 10000
"Cc1cnn(C)c1-c1ccc(OC2CCC3CN(CCC(C)(C)C)CC32)nn1 (stereo not shown) [Compound 5, 2-(3,3-dimethylbutyl)-4-[6-(2,4-dimethylpyrazol-3-yl)pyridazin-3-yl]oxy-3,3a,4,5,6,6a-hexahydro-1H-cyclopenta[c]pyrrole]",9.66,3570
"Cc1cnn(C)c1-c1ccc(OC2CCC3CN(CC4CC5C=CC4C5)CC32)nn1 (stereo not shown) [Compound 7, 2-(5-bicyclo[2.2.1]hept-2-enylmethyl)-4-[6-(2,4-dimethylpyrazol-3-yl)pyridazin-3-yl]oxy-3,3a,4,5,6,6a-hexahydro-1H-cyclopenta[c]pyrrole]",5.46,1360
"Cc1cnn(C)c1-c1ccc(OC2CCC3CN(Cc4ccccc4)CC32)nn1 (stereo not shown) [Compound 8, 2-benzyl-4-[6-(2,4-dimethylpyrazol-3-yl)pyridazin-3-yl]oxy-3,3a,4,5,6,6a-hexahydro-1H-cyclopenta[c]pyrrole]",43.3,> 10000
"Cc1cnn(C)c1-c1ccc(OC2CCC3CN(CCc4ccccc4)CC32)nn1 (stereo not shown) [Compound 9, 4-[6-(2,4-dimethylpyrazol-3-yl)pyridazin-3-yl]oxy-2-(2-phenylethyl)-3,3a,4,5,6,6a-hexahydro-1H-cyclopenta[c]pyrrole]",29.6,> 10000
"Cc1cnn(C)c1-c1ccc(NCCC2CCC3CN(CC4CCCOC4)CC23)nn1 (stereo not shown) [Compound 11, 6-(2,4-dimethylpyrazol-3-yl)-N-[2-[2-(tetrahydropyran-3-ylmethyl)-3,3a,4,5,6,6a-hexahydro-1H-cyclopenta[c]pyrrol-4-yl]ethyl]pyridazin-3-amine]",20.9,> 10000
"Cc1cnn(C)c1-c1ccc(NCCC2CCC3CN(CC4CCOCC4)CC23)nn1 (stereo not shown) [Compound 12, 6-(2,4-dimethylpyrazol-3-yl)-N-[2-[2-(tetrahydropyran-4-ylmethyl)-3,3a,4,5,6,6a-hexahydro-1H-cyclopenta[c]pyrrol-4-yl]ethyl]pyridazin-3-amine]",29.4,> 10000
"Cc1cccnc1CN1CC2CCC(CCNc3ccc(-c4c(C)cnn4C)nn3)C2C1 (stereo not shown) [Compound 14, 6-(2,4-dimethylpyrazol-3-yl)-N-[2-[2-[(3-methyl-2-pyridyl)methyl]-3,3a,4,5,6,6a-hexahydro-1H-cyclopenta[c]pyrrol-4-yl]ethyl]pyridazin-3-amine]",7.73,1780
"Cc1cnn(C)c1-c1ccc(NCCC2CCC3CN(Cc4ccccc4)CC23)nn1 (stereo not shown) [Compound 15, N-[2-(2-benzyl-3,3a,4,5,6,6a-hexahydro-1H-cyclopenta[c]pyrrol-4-yl)ethyl]-6-(2,4-dimethylpyrazol-3-yl)pyridazin-3-amine]",8.5,2260
"Cc1cnn(C)c1-c1ccc(NCCC2CCC3CN(CCc4ccccc4)CC23)nn1 (stereo not shown) [Compound 16, 6-(2,4-dimethylpyrazol-3-yl)-N-[2-[2-(2-phenylethyl)-3,3a,4,5,6,6a-hexahydro-1H-cyclopenta[c]pyrrol-4-yl]ethyl]pyridazin-3-amine]",6.59,2210
"Cc1cnn(C)c1-c1ccc(NCCC2CCC3CN(CCCc4ccccc4)CC23)nn1 (stereo not shown) [Compound 17, 6-(2,4-dimethylpyrazol-3-yl)-N-[2-[2-(3-phenylpropyl)-3,3a,4,5,6,6a-hexahydro-1H-cyclopenta[c]pyrrol-4-yl]ethyl]pyridazin-3-amine]",5.4,1050

# More lines, in order of falling IC50, values ahead:
remaining activity at 30 µM [%],IC50 [nM],Compound
3.95,1030,"Cc1cnn(C)c1-c1ccc(OC2CCC3CN(CC45CC6CC(CC(C6)C4)C5)CC32)nn1 (stereo not shown) [Compound 6, 2-(1-adamantylmethyl)-4-[6-(2,4-dimethylpyrazol-3-yl)pyridazin-3-yl]oxy-3,3a,4,5,6,6a-hexahydro-1H-cyclopenta[c]pyrrole]"
3.52,402,"Cc1cnn(C)c1-c1ccc(NCCC2CCC3CN(CC45CC6CC(CC(C6)C4)C5)CC23)nn1 (stereo not shown) [Compound 18, N-[2-[2-(1-adamantylmethyl)-3,3a,4,5,6,6a-hexahydro-1H-cyclopenta[c]pyrrol-4-yl]ethyl]-6-(2,4-dimethylpyrazol-3-yl)pyridazin-3-amine]"
5.11,149,"Cc1cnn(C)c1-c1ccc(NCC2CCC3CN(CCC(C)(C)C)CC23)nn1 (stereo not shown) [Compound 19, N-[[2-(3,3-Dimethylbutyl)-3,3a,4,5,6,6a-hexahydro-1H-cyclopenta[c]pyrrol-4-yl]methyl]-6-(2,4-dimethylpyrazol-3-yl)pyridazin-3-amine]"
4.47,130,"Cc1cnn(C)c1-c1ccc(NCCC2CCC3CN(CCC(C)(C)C)CC23)nn1 (stereo not shown) [Compound 10, N-[2-[2-(3,3-Dimethylbutyl)-3,3a,4,5,6,6a-hexahydro-1H-cyclopenta[c]pyrrol-4-yl]ethyl]-6-(2,4-dimethylpyrazol-3-yl)pyridazin-3-amine]"
3.75,65,"Cc1cnn(C)c1-c1ccc(NCCC2CCC3CN(CC4CC5C=CC4C5)CC23)nn1 (stereo not shown) [Compound 13, N-[2-[2-(5-bicyclo[2.2.1]hept-2-enylmethyl)-3,3a,4,5,6,6a-hexahydro-1H-cyclopenta[c]pyrrol-4-yl]ethyl]-6-(2,4-dimethylpyrazol-3-yl)pyridazin-3-amine]"
4.4,53,"Cc1cnn(C)c1-c1ccc(NCC2CCC3CN(CC45CC6CC(CC(C6)C4)C5)CC23)nn1 (stereo not shown) [Compound 20, N-[[2-(1-adamantylmethyl)-3,3a,4,5,6,6a-hexahydro-1H-cyclopenta[c]pyrrol-4-yl]methyl]-6-(2,4-dimethylpyrazol-3-yl)pyridazin-3-amine]"
